From publication PMC12732581, “Molecular and System-Level Characterization of MMP12 Suppression in Lung Cancer: A Combined Bioinformatics and Molecular Approach” (International Journal of Molecular Sciences, 2025) come the findings set out here.

Test [1] concerns H1299 cells. As to the kind of experiment: Annexin V-FITC/PI apoptosis assay (flow cytometry). Particulars: H1299, double IC50, 72 h.
Experimental: Apoptosis was assessed using Annexin-V/PI staining, following the method described earlier with minor modifications [84]. […] After the treatment, the cells were collected and stained with Annexin-V-FITC and propidium iodide. The stained cells were then analyzed using a BD FACSCanto II flow cytometer (Becton, Dickinson and Company (BD), Franklin Lakes, NJ, USA) and FACSDiva software (Becton, Dickinson and Company (BD), Franklin Lakes, NJ, USA).
For test [2], the system named is A549 lung cancer cells. The test can be described thus: MTT cell viability assay, A549. The test is classed as cell-based, human. How it is done: (§1) To evaluate the impact of MMP12 inhibitors on lung cancer cell lines, an MTT assay was performed on A549, H1299, and H661 cells exposed to varying concentrations of inhibitors over 48, 72, and 96 h.
(§2) The lung cancer cell lines referenced as A549, H1299, and H661 were acquired from the American Type Culture Collection (ATCC, Manassas, VA, USA). Fibroblast cells of dermal origin were used as a model for normal human tissue, which were also purchased from ATCC. A549, H1299, and H661 cells were maintained in the RPMI culture medium, while fibroblast cells were maintained in the DMEM high glucose culture medium. Both RPMI and DMEM culture media were supplemented with 100 U/mL penicillin, 0.1 mg/mL streptomycin to prevent bacterial growth, 10% FBS to promote cell growth, and 2 mM L-glutamine as an energy source.
(§3) The 3-(4,5-dimethylthiazol-2-yl)-2,5-diphenyltetrazolium bromide (MTT) assay was employed to evaluate cell proliferation as previously noted. All experiments were performed in triplicate wells and were repeated at least twice independently. The percentage of the relative cell viability of treated cells versus the untreated cells (negative controls) was calculated using the following formula in Equation (1) (cell viability calculation):(1) Cell viability%=optical density of treated cells/optical density of untreated cells×100

In test [3] the test system is H661 lung cancer cells. As to the kind of experiment: MTT cell viability assay, H661. Type of test: cell-based, human. How it is done:
as §1, §2, §3

The subject of test [4] is H1299 lung cancer cells. The test can be described thus: MTT cell viability assay, H1299. Type of test: cell-based, human. How it is done: as §1, §2, §3
Test [5] deals with T1, recombinant human MMP12 (Homo sapiens, UniProt P39900).
T1 construct: purchased Abcam
T1 sequence (P39900 106-470): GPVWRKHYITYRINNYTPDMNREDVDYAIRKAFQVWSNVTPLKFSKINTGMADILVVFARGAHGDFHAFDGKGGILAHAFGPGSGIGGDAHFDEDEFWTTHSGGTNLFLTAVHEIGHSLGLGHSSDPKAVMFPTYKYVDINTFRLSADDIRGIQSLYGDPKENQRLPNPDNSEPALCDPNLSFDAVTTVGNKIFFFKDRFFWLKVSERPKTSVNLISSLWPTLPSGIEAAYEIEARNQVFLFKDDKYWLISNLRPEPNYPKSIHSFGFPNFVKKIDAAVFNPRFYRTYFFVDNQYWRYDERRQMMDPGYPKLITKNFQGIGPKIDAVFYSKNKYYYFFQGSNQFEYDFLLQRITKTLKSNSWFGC
The test can be described thus: MMP12 colorimetric thiopeptide enzyme inhibition assay (Abcam). Type of test: biochemical. Particulars: at 50 µM. How it is done:
The enzyme inhibition potential of synthesized p-chlorocinnamic acid derivatives against MMP12 was assessed using the Abcam colorimetric assay.
The inhibitory activity of the newly synthesized compounds against MMP12 was assessed using a previously established enzymatic assay protocol, as described in our earlier study. In brief, we conducted a colorimetric thiopeptide-based inhibition assay for MMP12 using recombinant human MMP12 and the reference inhibitor NNGH as a positive control. The IC50 values were calculated using GraphPad Prism version 9 (GraphPad Software, San Diego, CA, USA).

SMILES strings stand for the structures.

Take `N.N.[Cl][Pt][Cl]` [Cisplatin, reference compound]: the “Necrosis (%) (Annexin−/PI+, Q1-UL)” value in test [1] (control 0.7) came out at 1.7%. Moreover, the “Late Apoptosis (%) (Annexin+/PI+, Q1-UR)” value in test [1] (control 2.6) is 11.6%. The “Early Apoptosis (%) (Annexin+/PI−, Q1-LR)” value in test [1] (control 8.7) was determined as 28.6%. Further, the “Total Apoptosis (%)” value in test [1] (control 11.3) worked out at 40.2%.
Consider `O=C(/C=C/c1ccc(Cl)cc1)Nc1cccc(C(=O)c2ccccc2)c1` [Compound C2], for which the IC50 is greater than 1000 µM in test [2] (A549, 48 h); greater than 1000 µM in test [2] (A549, 72 h); greater than 1000 µM in test [2] (A549, 96 h); 599 µM in test [3] (H661, 48 h); 410 µM in test [3] (H661, 72 h); 350 µM in test [3] (H661, 96 h). In addition, the IC50 in test [4] (H1299, 48 h) stood at 827 µM; in test [4] (H1299, 72 h), 692 µM; in test [4] (H1299, 96 h), 349 µM. Further, the MMP12 enzyme inhibition in test [5] turned out to be 35.0%.
Take `O=C(/C=C/c1ccc(Cl)cc1)Nc1ccc(Cl)cc1C(=O)c1ccccc1` [Compound C3]: the IC50 in test [2] (A549, 48 h) stood at 251 µM; in test [2] (A549, 72 h) it was 269 µM; in test [2] (A549, 96 h), 999 µM; in test [3] (H661, 48 h) it was 571 µM; in test [3] (H661, 72 h), 301 µM; in test [3] (H661, 96 h) it was 203 µM. In addition, the IC50 was found to be 557 µM in test [4] (H1299, 48 h); 401 µM in test [4] (H1299, 72 h); 338 µM in test [4] (H1299, 96 h). In test [5], the MMP12 enzyme inhibition is listed as 23.5%.
Turning to `Cc1ccc(NC(=O)/C=C/c2ccc(Cl)cc2)c(C(=O)c2ccccc2)c1` [Compound C4], the IC50 amounted to 963 µM in test [2] (A549, 48 h); 396 µM in test [2] (A549, 72 h); 168 µM in test [2] (A549, 96 h); 562 µM in test [3] (H661, 48 h); 319 µM in test [3] (H661, 72 h); 146 µM in test [3] (H661, 96 h). Besides, the IC50 in test [4] (H1299, 48 h) stood at 616 µM; in test [4] (H1299, 72 h) it was 302 µM; in test [4] (H1299, 96 h), 254 µM. Moreover, the MMP12 enzyme inhibition in test [5] is recorded as 23.3%.
Turning to `O=C(/C=C/c1ccc(Cl)cc1)Nc1ccccc1C(=O)c1ccccc1` [Compound C5], the IC50 is greater than 1000 µM in test [2] (A549, 48 h); 865 µM in test [2] (A549, 96 h); 489 µM in test [3] (H661, 48 h); 366 µM in test [3] (H661, 72 h); 226 µM in test [3] (H661, 96 h); 636 µM in test [4] (H1299, 48 h). Moreover, the IC50 was 449 µM in test [4] (H1299, 72 h) and 419 µM in test [4] (H1299, 96 h). Further, the MMP12 enzyme inhibition in test [5] came to 11.5%.
Take `Cc1ccc(C(=O)c2ccccc2NC(=O)/C=C/c2ccc(Cl)cc2)cc1` [Compound C6]: the half-maximal inhibitory concentration (IC50) in test [2] (A549, 48 h) was greater than 1000 µM; in test [2] (A549, 72 h) it was greater than 1000 µM; in test [2] (A549, 96 h), 830 µM; in test [3] (H661, 48 h), 448 µM; in test [3] (H661, 72 h) it was 260 µM; in test [3] (H661, 96 h) it was 270 µM. Besides, the IC50 in test [4] (H1299, 48 h) is 361 µM; in test [4] (H1299, 72 h), 268 µM; in test [4] (H1299, 96 h), 256 µM. Moreover, in test [5], the MMP12 enzyme inhibition is on record as 21.3%.
